Assay results from patent US9302999B2, “Substituted triazoles as herbicides” (E. I. DU PONT DE NEMOURS AND COMPANY, priority 2012, dated 2016).

Assays:
Type in all cases: in vivo
[1] = tested on: nutsedge, yellow (yellow nutsedge, Cyperus esculentus); experiment: Test C pre-/postemergence: nutsedge, yellow
Outline: (§1)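 Preemergence on seeds in loam/sand, postemergence on 2–18 cm (1–4-leaf) plants in peat-based medium; compounds in non-phytotoxic solvent with surfactant. After 13–15 days in greenhouse, visual rating versus controls, 0 (no effect) to 100 (complete control).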

[2] = tested on: johnsongrass (Sorghum halepense); experiment: Test C pre-/postemergence: johnsongrass
Excerpt: (§2) Seeds of plant species selected from blackgrass (Alopecurus myosuroides), bromegrass, downy (downy bromegrass, Bromus tectorum), foxtail, green (green foxtail, Setaria viridis), ryegrass, Italian (Italian ryegrass, Lolium multiflorum), winter wheat (Triticum aestivum), wild oat (Avena fatua), galium (catchweed bedstraw, Galium aparine), bermudagrass (Cynodon dactylon), surinam grass (Brachiaria decumbens), cocklebur (common cocklebur, Xanthium strumarium), corn (Zea mays), large crabgrass (Digitaria sanguinalis), woolly cupgrass (Eriochloa villosa), foxtail, giant (giant foxtail, Setaria faberii), goosegrass (Eleusine indica), johnsongrass (Sorghum halepense), kochia (Kochia scoparia), lambsquarters (Chenopodium album), morningglory (Ipomoea coccinea), nightshade (eastern black nightshade, Solanum ptycanthum), nutsedge, yellow (yellow nutsedge, Cyperus esculentus), pigweed (Amaranthus retroflexus), ragweed (common ragweed, Ambrosia elation), soybean (Glycine max), common (oilseed) sunflower (Helianthus annuus), Russian thistle (Salsola kali) and velvetleaf (Abutilon theophrasti) were planted into a blend of loam soil and sand and treated preemergence with test chemicals formulated in a non-phytotoxic solvent mixture which included a surfactant.
(§3) At the same time, plants selected from these crop and weed species and also barley (winter barley, Hordeum vulgare), canarygrass (Phalaris minor), chickweed (common chickweed, Stellaria media) windgrass (Apera spica-venti) and deadnettle (henbit deadnettle, Lamium amplexicaule) were planted in pots containing Redi-Earth® planting medium (Scotts Company, 14111 Scottslawn Road, Marysville, Ohio 43041) comprising spaghnum peat moss, vermiculite, wetting agent and starter nutrients and treated with postemergence applications of test chemicals formulated in the same manner. Plants ranged in height from 2 to 18 cm (1- to 4-leaf stage) for postemergence treatments.
(§4) Treated plants and controls were maintained in a greenhouse for 13 to 15 days, after which time all species were compared to controls and visually evaluated. Plant response ratings, summarized in Table C, are based on a scale of 0 to 100 where 0 is no effect and 100 is complete control. A dash (-) response means no test result.

[3] = tested on: barnyardgrass (Echinochloa crus-galli); experiment: Test A pre-/postemergence: barnyardgrass
Outline: (§5)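 Pre: directed soil spray after planting in loam + sand. Post: same formulation (non-phytotoxic solvent + surfactant) on 1–2-leaf plants, 2–10 cm. Greenhouse ~10 d; visual injury 0–100 vs untreated.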

[4] = tested on: pigweed (Amaranthus retroflexus); experiment: Test C pre-/postemergence: pigweed
Outline: as §1

[5] = tested on: lambsquarters (Chenopodium album); experiment: Test C pre-/postemergence: lambsquarters
Outline: as §1

[6] = tested on: wild oat (Avena fatua); experiment: Test C pre-/postemergence: wild oat
Excerpt: as §2, §3, §4

[7] = tested on: crabgrass, large (large crabgrass, Digitaria sanguinalis); experiment: Test A pre-/postemergence: crabgrass, large
Outline: as §5

[8] = tested on: blackgrass (Alopecurus myosuroides); experiment: Test C pre-/postemergence: blackgrass
Outline: as §1

[9] = tested on: ryegrass, Italian (Italian ryegrass, Lolium multiflorum); experiment: Test C pre-/postemergence: ryegrass, Italian
Outline: as §1

[10] = tested on: corn (Zea mays); experiment: Test A pre-/postemergence: corn
Outline: as §5

[11] = tested on: large crabgrass (Digitaria sanguinalis); experiment: Test C pre-/postemergence: large crabgrass
Outline: as §1

[12] = tested on: galium (catchweed bedstraw, Galium aparine); experiment: Test C pre-/postemergence: galium
Excerpt: as §2, §3, §4

[13] = Postemergence, 16 g ai/ha, scale 0 to 100, 0 no effect, 100 complete control
[14] = Postemergence, 31 g ai/ha, scale 0 to 100 (0 no effect, 100 complete control)
[15] = Postemergence, 62 g ai/ha, scale 0 to 100 (0 no effect, 100 complete control)
[16] = Postemergence, 125 g ai/ha, scale 0 to 100, 0 no effect, 100 complete control
[17] = Postemergence, 1000 g ai/ha, visual rating on 0 to 100 scale (0 no effect, 100 complete control), approximately ten days
[18] = Preemergence, 1000 g ai/ha, 0 to 100 scale, 0 is no effect, 100 is complete control
[19] = Postemergence, 250 g ai/ha, scale 0 to 100 (0 no effect, 100 complete control)
[20] = Preemergence, 31 g ai/ha, scale 0 (no effect) to 100 (complete control)
[21] = Preemergence, 62 g ai/ha, scale of 0 to 100, 0 is no effect, 100 is complete control
[22] = Preemergence, 125 g ai/ha, scale 0 to 100, 0 no effect, 100 complete control
[23] = Preemergence, 250 g ai/ha, scale 0 to 100, 0 no effect, 100 complete control
[24] = Postemergence, 125 g ai/ha, 0 to 100 scale, 0 is no effect, 100 is complete control
[25] = Postemergence, 500 g ai/ha, 0 to 100 scale, 0 is no effect, 100 is complete control
[26] = Preemergence, 125 g ai/ha, 0 to 100 scale where 0 is no effect and 100 is complete control
[27] = Preemergence, 500 g ai/ha, 0 to 100 scale (0 no effect, 100 complete control)
[28] = Postemergence, 250 g ai/ha, scale 0 to 100

Cc1nn(-c2ccc(C(F)(F)F)cc2)nc1Cc1cccc(C(F)(F)F)c1 [Compound 124]
70: Barnyardgrass plant response rating [3, 17] | Plant response rating, Galium [12, 13] | Plant response rating, Galium [12, 14]
75: Plant response rating, Pigweed [4, 13]
10: Corn plant response rating [10, 18]
100: Crabgrass, Large plant response rating [7, 18]
25: Plant response rating, Oat, Wild [6, 15]
45: Plant response rating, Johnsongrass [2, 16] | Plant response rating, Crabgrass, Large [11, 16]
40: Plant response rating, Johnsongrass [2, 15] | Plant response rating, Crabgrass, Large [11, 15]
30: Plant response rating, Crabgrass, Large [11, 14]
65: Plant response rating, Ryegrass, Italian [9, 16]
50: Plant response rating, Blackgrass [8, 15]
85: Plant response rating, Lambsquarters [5, 13] | Plant response rating, Blackgrass [8, 16] | Plant response rating, Galium [12, 16]
35: Plant response rating, Oat, Wild [6, 16] | Plant response rating, Blackgrass [8, 14] | Plant response rating, Ryegrass, Italian [9, 15]
60: Corn plant response rating [10, 17]
20: Plant response rating, Oat, Wild [6, 13] | Plant response rating, Oat, Wild [6, 14] | Plant response rating, Crabgrass, Large [11, 13]
98: Plant response rating, Pigweed [4, 16] | Plant response rating, Lambsquarters [5, 15] | Plant response rating, Lambsquarters [5, 16]
0: Plant response rating, Nutsedge, Yellow [1, 13] | Plant response rating, Nutsedge, Yellow [1, 14] | Plant response rating, Nutsedge, Yellow [1, 15] | Plant response rating, Nutsedge, Yellow [1, 16] | Plant response rating, Blackgrass [8, 13]
95: Plant response rating, Pigweed [4, 15] | Plant response rating, Lambsquarters [5, 14]
5: Plant response rating, Johnsongrass [2, 13] | Plant response rating, Johnsongrass [2, 14] | Plant response rating, Ryegrass, Italian [9, 13]
90: Barnyardgrass plant response rating [3, 18] | Plant response rating, Pigweed [4, 14] | Crabgrass, Large plant response rating [7, 17]
15: Plant response rating, Ryegrass, Italian [9, 14]
80: Plant response rating, Galium [12, 15]

CCOc1nn(-c2ccc(F)cc2)nc1Cc1ccnc(C(F)F)c1 [Compound 195]
30: Plant response rating, Corn [10, 24] | Plant response rating, Corn [10, 27]
20: Plant response rating, Nutsedge, Yellow [1, 15] | Plant response rating, Corn [10, 26]
70: Plant response rating, Blackgrass [8, 15]
80: Plant response rating, Nutsedge, Yellow [1, 23] | Plant response rating, Johnsongrass [2, 15] | Plant response rating, Lambsquarters [5, 21] | Plant response rating, Oat, Wild [6, 16] | Plant response rating, Oat, Wild [6, 20] | Plant response rating, Blackgrass [8, 16] | Plant response rating, Blackgrass [8, 28] | Plant response rating, Ryegrass, Italian [9, 21] | Plant response rating, Galium [12, 14] | Plant response rating, Galium [12, 21]
85: Plant response rating, Oat, Wild [6, 19]
0: Plant response rating, Nutsedge, Yellow [1, 20] | Plant response rating, Nutsedge, Yellow [1, 21]
95: Plant response rating, Johnsongrass [2, 16] | Plant response rating, Johnsongrass [2, 19] | Plant response rating, Pigweed [4, 14] | Plant response rating, Pigweed [4, 15] | Plant response rating, Lambsquarters [5, 14] | Plant response rating, Lambsquarters [5, 15] | Plant response rating, Lambsquarters [5, 16] | Plant response rating, Lambsquarters [5, 19] | Plant response rating, Lambsquarters [5, 23] | Plant response rating, Crabgrass, Large [11, 28] | Plant response rating, Galium [12, 15] | Plant response rating, Galium [12, 16] | Plant response rating, Galium [12, 19] | Plant response rating, Galium [12, 23]
90: Plant response rating, Barnyardgrass [3, 24] | Barnyardgrass plant response rating [3, 25] | Plant response rating, Barnyardgrass [3, 26] | Plant response rating, Lambsquarters [5, 22] | Plant response rating, Oat, Wild [6, 21] | Plant response rating, Oat, Wild [6, 23] | Plant response rating, Crabgrass, Large [7, 24] | Crabgrass, Large plant response rating [7, 25] | Plant response rating, Blackgrass [8, 20] | Plant response rating, Blackgrass [8, 21] | Plant response rating, Blackgrass [8, 22] | Plant response rating, Blackgrass [8, 23] | Plant response rating, Ryegrass, Italian [9, 22] | Plant response rating, Ryegrass, Italian [9, 23] | Plant response rating, Crabgrass, Large [11, 16] | Plant response rating, Galium [12, 22]
50: Plant response rating, Ryegrass, Italian [9, 20]
25: Plant response rating, Nutsedge, Yellow [1, 16] | Plant response rating, Nutsedge, Yellow [1, 19] | Plant response rating, Ryegrass, Italian [9, 14]
45: Plant response rating, Blackgrass [8, 14]
98: Plant response rating, Johnsongrass [2, 22] | Plant response rating, Pigweed [4, 16] | Plant response rating, Pigweed [4, 19] | Plant response rating, Pigweed [4, 20] | Plant response rating, Pigweed [4, 21] | Plant response rating, Crabgrass, Large [11, 20]
60: Plant response rating, Oat, Wild [6, 14] | Plant response rating, Ryegrass, Italian [9, 16] | Plant response rating, Ryegrass, Italian [9, 19] | Corn plant response rating [10, 25] | Plant response rating, Crabgrass, Large [11, 15]
10: Plant response rating, Nutsedge, Yellow [1, 14] | Plant response rating, Galium [12, 20]
75: Plant response rating, Oat, Wild [6, 15]
100: Plant response rating, Johnsongrass [2, 23] | Plant response rating, Barnyardgrass [3, 27] | Plant response rating, Pigweed [4, 22] | Plant response rating, Pigweed [4, 23] | Plant response rating, Crabgrass, Large [7, 26] | Plant response rating, Crabgrass, Large [7, 27] | Plant response rating, Crabgrass, Large [11, 21] | Plant response rating, Crabgrass, Large [11, 22] | Plant response rating, Crabgrass, Large [11, 23]
55: Plant response rating, Johnsongrass [2, 14] | Plant response rating, Lambsquarters [5, 20] | Plant response rating, Ryegrass, Italian [9, 15] | Plant response rating, Crabgrass, Large [11, 14]
5: Plant response rating, Nutsedge, Yellow [1, 22]
